Earlier results, collected in patent US8940506B2, “High-sensitive fluorescent energy transfer assay using fluoresent amino acids and fluorescent proteins” (The Regents of the University of California, priority 2008, dated 2015).

System: cancer cells
Settings: by disrupting the interaction of ubiquitin E3 ligase MDM2 and its substrate p53

COc1ccc(C2=N[C@@H](c3ccc(Cl)cc3)[C@@H](c3ccc(Cl)cc3)N2C(=O)N2CCNC(=O)C2)c(OC(C)C)c1 [Nutlin-3]
apoptosis and growth inhibition of cancer cells: induce apoptosis and growth inhibition of cancer cells
